# From patent US5599902A, “Cancer inhibitory peptides” (Arizona Board of Regents acting on behalf of Arizona State …, priority 1994, dated 1997)
# How the values were obtained:
# [1] = test system: L1210 murine leukemia cells; test: Activity against L1210 murine leukemia cells (IC50); format: cell-based
# From the text: A molecule (22c) was designed based on the conformational similarities with (6R)-isodolastatin 10 (See FIGS. 1a and 1b). The molecule was then synthesized by the procedure outlined in this application.
# [2] = test system: P388 Lymphocytic Leukemia; test: Murine in vivo system: P388 Lymphocytic Leukemia, T/C
# From the text: (§1) The synthesis of potentially useful peptides presents one of the most essential and promising approaches to new types of anticancer and immunosuppressant drugs. The Dolastatins, an unprecedented series of linear and cyclic antineoplastic and/or cytostatic peptides isolated from Indian Ocean sea hare Dolabella auricularia represent excellent leads for synthetic modification. The very productive sea hare Dolabella auricularia has produced a number of structurally distinct peptides with excellent antineoplastic activity. Presently dolastatin 10, a linear pentapeptide represents the most important member and is a potentially useful antineoplastic agent. […] Recently the total synthesis and absolute configuration of this structurally unique and biologically active peptide was reported.
# (§2) Experimental Anticancer Activity of Dolastatin 10 in Murine in vivo Systems, T/C (μg/kg)
# [3] = test system: L1210 Lymphocytic Leukemia; test: Murine in vivo system: L1210 Lymphocytic Leukemia, T/C
# From the text: as §1, §2
# B16 Melanoma = test: Murine in vivo system: B16 Melanoma, T/C
# From the text: as §1, §2
# M5076 Ovary Sarcoma = test: Murine in vivo system: M5076 Ovary Sarcoma, T/C
# From the text: as §1, §2
# [4] = test system: LOX Human Melanoma Xenograft; test: LOX Human Melanoma Xenograft to Nude Mouse, T/C; format: in vivo
# From the text: as §2
# Human Mammary Xenograft = Human Mammary Xenograft Nude Mouse, T/C; format: in vivo
# From the text: as §1, §2
# [5] = test system: OVCAR-3 Human Ovary Xenograft; test: OVCAR-3 Human Ovary Xenograft Nude Mouse, T/C; format: in vivo; settings: OVCAR-3 xenograft, dose 40 μg/kg
# From the text: as §1, §2
# [6] = test system: MX-1 Human Mammary Xenograft; test: MX-1 Human Mammary Xenograft (Tumor Regression), T/C; format: in vivo, Murine
# From the text: as §1, §2
# OVCAR-3 = test: Human cancer cell line growth inhibition, Ovarian OVCAR-3; format: cell-based; settings: Ovarian OVCAR-3, 48 hours
# Description: (§3) Cancer Inst. […] Cancer Inst. Reports, Vol 81, No. 14, Page 1088, Jul.
# (§4) The only difference is historical usage.
# (§5) Percent Growths are calculated for each dose.
# (§6) This is the "baseline count" or "Tzero reading".
# SF-2X5 = test: Human cancer cell line growth inhibition, CNS SF-2X5; format: cell-based; settings: CNS SF-2X5, 48 hours
# Description: as §3, §4, §5, §6
# A4X8 = test: Human cancer cell line growth inhibition, Renal A4X8; format: cell-based; settings: Renal A4X8, 48 hours
# Description: as §3, §4, §5, §6
# NCI-H460 = test: Human cancer cell line growth inhibition, Lung-NSC NCI-H460; format: cell-based; settings: Lung-NSC NCI-H460, 48 hours
# Description: as §3, §4, §5, §6
# KM20L2 = test: Human cancer cell line growth inhibition, Colon KM20L2; format: cell-based; settings: Colon KM20L2, 48 hours
# Description: as §3, §4, §5, §6
# SK-MEL-5 = test: Human cancer cell line growth inhibition, Melanoma SK-MEL-5; format: cell-based; settings: Melanoma SK-MEL-5, 48 hours
# Description: as §3, §4, §5, §6
# [7] = test system: PS-388 Leukemia cell line; test: PS-388 mouse leukemia cell line growth inhibition; format: cell-based; settings: Mouse Leukemia PS-388, 48 hours
# Description: as §4, §5, §6
# [8] = LOX in separate experiments, dose 9.0 μg/kg
# [9] = LOX in separate experiments, dose 26 μg/kg
# [10] = LOX in separate experiments, dose 43 μg/kg
compound,measurement,setting,value
"CC[C@H](C)[C@@H]([C@@H](CC(=O)N1CCC[C@H]1CCC(=O)N[C@@H](CCSC)C(=O)OC)OC)N(C)C(=O)[C@@H](NC(=O)[C@H](C(C)C)N(C)C)C(C)C [22c, Dov-val-dil-desmethoxy-desmethyl-dolaproine-methionine methyl ester]",IC50,[1],4 µM
CC[C@H](C)[C@@H]([C@@H](CC(=O)N1CCC[C@H]1[C@H](OC)[C@@H](C)C(=O)N[C@@H](Cc1ccccc1)c1nccs1)OC)N(C)C(=O)[C@@H](NC(=O)[C@H](C(C)C)N(C)C)C(C)C [Dolastatin 10],T/C,"[2]; P388, dose 1.63 μg/kg",137
same,T/C,"[2]; P388, dose 3.25 μg/kg",146
same,cures,"[2]; P388, dose 3.25 μg/kg",17%
same,T/C,"[2]; P388, dose 6.5 μg/kg",155
same,cures,"[2]; P388, dose 6.5 μg/kg",17%
same,T/C,"[2]; P388, dose 13.0 μg/kg",toxic
same,T/C,"[3]; L1210, dose 1.63 μg/kg",120
same,T/C,"[3]; L1210, dose 3.25 μg/kg",139
same,T/C,"[3]; L1210, dose 6.5 μg/kg",135
same,T/C,"[3]; L1210, dose 13 μg/kg",152
same,T/C,"B16 Melanoma; B16, dose 1.44 μg/kg",142
same,T/C,"B16 Melanoma; B16, dose 3.4 μg/kg",171
same,T/C,"B16 Melanoma; B16, dose 4.0 μg/kg",205
same,T/C,"B16 Melanoma; B16, dose 6.67 μg/kg",182
same,T/C,"B16 Melanoma; B16, dose 11.11 μg/kg",238
same,cures,"B16 Melanoma; B16, dose 11.11 μg/kg",40%
same,T/C,"M5076 Ovary Sarcoma; M5076, dose 3.25 μg/kg",151
same,T/C,"M5076 Ovary Sarcoma; M5076, dose 6.5 μg/kg",142
same,T/C,"M5076 Ovary Sarcoma; M5076, dose 13 μg/kg",166
same,T/C,"M5076 Ovary Sarcoma; M5076, dose 26 μg/kg",toxic
same,T/C,[4]; [8],138
same,cures,[4]; [8],17%
same,T/C,"[4]; LOX in separate experiments, dose 15 μg/kg",192
same,T/C,[4]; [9],181
same,cures,[4]; [9],33%
same,T/C,[4]; [10],340
same,cures,[4]; [10],50%
same,T/C,"[4]; LOX, dose 3.25 μg/kg",170
same,cures,"[4]; LOX, dose 3.25 μg/kg",17%
same,T/C,"[4]; LOX, dose 6.5 μg/kg",206
same,cures,"[4]; LOX, dose 6.5 μg/kg",33%
same,T/C,"[4]; LOX, dose 13 μg/kg",301
same,cures,"[4]; LOX, dose 13 μg/kg",50%
same,T/C,"[4]; LOX, dose 26 μg/kg",301
same,cures,"[4]; LOX, dose 26 μg/kg",67%
same,T/C,"[4]; LOX, dose 52 μg/kg",toxic
same,T/C,Human Mammary Xenograft; dose 6.25 μg/kg,178
same,T/C,Human Mammary Xenograft; dose 13 μg/kg,137
same,T/C,Human Mammary Xenograft; dose 26 μg/kg,Toxic
same,T/C,[5],300
same,T/C (Tumor Regression),"[6]; MX-1, dose 6.25 μg/kg",69
same,T/C (Tumor Regression),"[6]; MX-1, dose 13 μg/kg",61
same,T/C (Tumor Regression),"[6]; MX-1, dose 26 μg/kg",50
same,T/C (Tumor Regression),"[6]; MX-1, dose 52 μg/kg",14
Dov-Val-Dil-Dap methyl ester [compound 21],GI-50,OVCAR-3,0.0035 µg/mL
same,LC-50,OVCAR-3,> 1 µg/mL
same,TGI,OVCAR-3,0.026 mg/L
same,GI-50,SF-2X5,0.0038 µg/mL
same,LC-50,SF-2X5,> 1 µg/mL
same,TGI,SF-2X5,> 0.035 mg/L
same,GI-50,A4X8,0.02 µg/mL
same,LC-50,A4X8,> 1 µg/mL
same,TGI,A4X8,> 1 mg/L
same,GI-50,NCI-H460,0.0022 µg/mL
same,LC-50,NCI-H460,> 1 µg/mL
same,TGI,NCI-H460,0.021 mg/L
same,GI-50,KM20L2,0.021 µg/mL
same,LC-50,KM20L2,> 1 µg/mL
same,TGI,KM20L2,0.23 mg/L
same,GI-50,SK-MEL-5,0.0087 µg/mL
same,LC-50,SK-MEL-5,> 1 µg/mL
same,TGI,SK-MEL-5,> 1 mg/L
same,ED-50,[7],0.0297 µg/mL
Z-Val-Dil-Dap-Phenethylamine [compound 18],GI-50,OVCAR-3,0.051 µg/mL
same,LC-50,OVCAR-3,0.99 µg/mL
same,TGI,OVCAR-3,0.24 mg/L
same,GI-50,SF-2X5,0.14 µg/mL
same,LC-50,SF-2X5,> 1 µg/mL
same,TGI,SF-2X5,0.43 mg/L
same,GI-50,A4X8,0.16 µg/mL
same,LC-50,A4X8,> 1 µg/mL
same,TGI,A4X8,0.52 mg/L
same,GI-50,NCI-H460,0.21 µg/mL
same,LC-50,NCI-H460,> 1 µg/mL
same,TGI,NCI-H460,0.66 mg/L
same,GI-50,KM20L2,0.24 µg/mL
same,LC-50,KM20L2,> 1 µg/mL
same,TGI,KM20L2,0.67 mg/L
same,GI-50,SK-MEL-5,0.29 µg/mL
same,LC-50,SK-MEL-5,> 1 µg/mL
same,TGI,SK-MEL-5,> 1 mg/L
same,ED-50,[7],> 1 µg/mL
